Read-outs that look alike come from different tables or passages of the source.
Tests used:
[1] = cited from earlier work
[2] = HPLC stability of vecuronium bromide solutions with anionic additives (Example 1); format: physicochemical
Procedure: HPLC System was a Shimadzu VP Series that consists of the following components: SPD-M10A—Diode Array Detector; SIL-10AD—Autosampler; LC-10AT—Pump; SCL-10A—Controller; and Shimadzu EZ Start Version 7.2 SP 1 Revision B—Software.
In this Example a number of anionic compounds, with various pKa's and carbon numbers, were compared for their ability to stabilize vecuronium in solution.
The following chart gives the compositions that were prepared and examined by HPLC for stability over time. Each sample contained approximately 1 mg/mL vecuronium bromide. […] All numerical entries in the chart are actual recorded weights in grams: […]

[3] = Cubic phase-water partitioning of vecuronium (HPLC); format: physicochemical
Description: It is this hydrophobic milieu that is central to the invention, in limiting the contact between water and the labile group(s) of the drug.

[4] = Shelf-life of vecuronium bromide control solutions (HPLC, 15% potency lost); format: physicochemical; details: for shelf-life of solution: 1 mg/ml in water, point at which 15% of potency is lost
Description: In the Examples below, where HPLC assay results for vecuronium are reported, the following gives the parameters of the HPLC measurement. HPLC System was a Shimadzu VP Series that consists of the following components: SPD-M10A—Diode Array Detector; SIL-10AD—Autosampler; LC-10AT—Pump; SCL-10A—Controller; and Shimadzu EZ Start Version 7.2 SP 1 Revision B—Software. Chromatographic Parameters: Mobile Phase—60% Acetonitrile, 25% Methanol, 15% 0.1M TMAH (pH=6.5); Column—25 cm×4.6 mm Phenomenex Luna C18 5 μm; Wavelength—210 nm; Injection Volume—5 μL; Flow Rate—1.0 mL/min; Standard Preparation—1 mg/mL in 0.001N HCl/Methanol; and Sample Preparation—1 mg/mL—Undiluted.
In the case of vecuronium at pH 6 and 25° C., the shelf-life of just under 1 week was recorded for both a maleate-TRIS buffer and an HCl-acidified vecuronium solution.

twitch response = details: 0.08 to 0.1 mg/Kg, balanced anesthesia; cited from earlier work
[5] = 25° C. and 40° C. data of Example 1
[6] = with a charged surfactant (sodium glycocholate)

In the case of `CCCCCCCCCCCCCC(=O)OCC(COP(=O)(O)OCC(O)CO)OC(=O)CCCCCCCCCCCCC` (stereo not drawn) [DMPG, dimyristoylphosphatidylglycerol], the pKa [1] is listed as “approx. 3.0” and the pKa ([1]; listed as Dimyristoyl phosphatidylglycerol) is listed as “about 3.0”.
In the case of `CC(=O)N[C@@H](Cc1c[nH]c2ccccc12)C(=O)O` [N-acetyltryptophan], the “effect of the additive on vecuronium solution stability (in words)” value (shortened to “effect of the additive”) [2, 5] is given as “performed very poorly at the higher temperature” and the pKa [1] is given as 3.4.
In the case of `CC(=O)O[C@H]1C[C@@H]2CC[C@@H]3[C@H](CC[C@@]4(C)[C@H]3C[C@H]([N+]3(C)CCCCC3)[C@@H]4OC(C)=O)[C@@]2(C)C[C@@H]1N1CCCCC1` [Vecuronium, vecuronium bromide], the “KQW (cubic-water partition coefficient)” value [3, 6] is reported as 10,000, the “concentration in the aqueous phase” value [3, 6] is reported as 1 µg/mL and the “concentration in the cubic phase” value [3, 6] is reported as 10600 µg/mL. The “log KQW” value [3, 6] was “+4”, the “KQW (cubic-water partition coefficient)” value ([3]; without a charged surfactant) was 1,667 and the “concentration in the aqueous phase” value ([3]; without a charged surfactant) was 6 µg/mL. The “concentration in the cubic phase” value ([3]; without a charged surfactant) was 10000 µg/mL, the “log KQW” value ([3]; without a charged surfactant) was “+3.2” and the shelf-life of solution ([4]; pH 6.0, 4° C.) was 5 weeks. The shelf-life of solution ([4]; pH 6.0, 25° C.) was 1 week, the “time until potency is reduced to 85% of initial” value ([4]; control solution at same pH (5.2) and temperature (25° C.)) was “about 2 weeks” and the shelf-life ([4]; pH 6, 25° C., both maleate-TRIS buffer and HCl-acidified solution) was “under 1 week”. The “time to first depression of twitch response” value (twitch response) was “approximately 1 minute”.
In the case of `O=S(=O)(O)c1ccccc1` [benzenesulfonic, benzenesulfonic acid], the “effect of the additive” value [2] is reported as “most stable solutions”.
In the case of `C[C@H](CCC(=O)O)[C@H]1CC[C@H]2[C@@H]3CC[C@@H]4C[C@H](O)CC[C@]4(C)[C@H]3C[C@H](O)[C@]12C` [deoxycholic acid], the pKa [1] is given as “about 5.7”.
With `O=C(O)c1cc(O)ccc1O` [gentisic, gentisic acid] the “effect of the additive” value [2] was “most stable solutions”.
In the case of `C[C@H](CCC(=O)NCC(=O)O)[C@H]1CC[C@H]2[C@@H]3[C@H](O)C[C@@H]4C[C@H](O)CC[C@]4(C)[C@H]3C[C@H](O)[C@]12C` [glycocholic, glycocholic acid], the pKa [1] is listed as “approximately 3.5” and the pKa ([1]; listed as glycocholate) is listed as 3.5.
In the case of `O=C(O)/C=C\C(=O)O` [maleic], the pKa [1] is given as 3.9.
In the case of `CCCCCCCC(=O)O` [octanoic, Octanoic acid], the “effect of the additive” value [2, 5] is reported as “equally bad”.
For `O=C1NS(=O)(=O)c2ccccc21` [saccharin], the “effect of the additive” value [2] is listed as “most stable solutions” and the pKa [1] is listed as 2.0.
With `Cc1ccc(S(=O)(=O)O)cc1` [toluenesulfonic, toluenesulfonic acid] the “effect of the additive” value [2] was “most stable solutions”.

From US7838515B2, “Formulations of quaternary ammonium neuromuscular blocking agents” (Lyotropic Therapeutics, Inc., priority 2005, dated 2010)
